Reference: the NIST ThermoML archive (doi:10.1016/j.fluid.2011.05.002)
Numbers after ± are expanded uncertainties.

How the values were obtained:
[1] = molar heat capacity at constant pressure; settings: 101.33 kPa, Liquid, Small sample (50 mg) DSC
[2] = for mass density / viscosity: Liquid; for mass density: Vibrating tube method; for viscosity: 101.33 kPa, Capillary tube (Ostwald / Ubbelohde) method; for surface tension liquid-gas: Ring tensiometer

CCCC[n+]1cccc(C)c1.N#C[C-](C#N)C#N [1-butyl-3-methylpyridinium tricyanomethanide]
Settings | mass density [kg/m3] | molar heat capacity at constant pressure [J/K/mol] | surface tension liquid-gas [mN/m] | viscosity [mPa·s]
[1], 298 K | – | 468 ± 47 | – | –
[1], 323 K | – | 479 ± 48 | – | –
[2], 283.15 K | 1052.57 ± 1.3 | – | – | –
[2], 293.15 K | 1045.79 ± 1.3 | – | – | –
[2], 295.15 K | – | – | – | 51.42 ± 2.2
[2], 296.05 K | – | – | 27.7 ± 0.6 | –
[2], 298.15 K | – | – | – | 43.92 ± 1.9
[2], 303.15 K | 1039.12 ± 1.3 | – | – | 34.87 ± 1.5
[2], 305.75 K | – | – | 27.3 ± 0.6 | –
[2], 308.15 K | – | – | – | 28.22 ± 1.2
[2], 313.15 K | 1032.55 ± 1.3 | – | – | 23.27 ± 0.98
[2], 313.75 K | – | – | 26.9 ± 0.6 | –
[2], 320.65 K | – | – | 26.6 ± 0.6 | –
[2], 323.15 K | 1026.1 ± 1.3 | – | – | 16.25 ± 0.68
[2], 329.85 K | – | – | 26.3 ± 0.6 | –
[2], 333.15 K | 1019.76 ± 1.3 | – | – | 12.19 ± 0.51
[2], 338.15 K | – | – | 26 ± 0.6 | –
[2], 343.15 K | 1013.52 ± 1.3 | – | – | 9.56 ± 0.4
[2], 346.15 K | – | – | 25.5 ± 0.5 | –
[2], 353.15 K | 1007.34 ± 1.3 | – | – | 7.54 ± 0.31
[2], 356.15 K | – | – | 25.1 ± 0.5 | –
[2], 363.15 K | 1001.13 ± 1.3 | – | – | 6.07 ± 0.25
